# B1: TNFR-55: soluble receptors for TNF-α (protein, UniProt P19438 30-211, looked up)
# extracellular domain: LVPHLGDREKRDSVCPQGKYIHPQNNSICCTKCHKGTYLYNDCPGPGQDTDCRECESGSFTASENHLRHCLSCSKCRKEMGQVEISSCTVDRDTVCGCRKNQYRHYWSENLFQCFNCSLCLNGTVHLSCQEKQNTVCTCHAGFFLRENECVSCSNCKKSLECTKLCLPQIENVKGTEDSGTT
# modifications: extracellular domain
# notes: soluble receptors for TNF-α
# How the values were obtained:
# [1] = molecular target: Human fibroblast stromelysin (HFS) (Homo sapiens, UniProt P08254); experiment: Human Fibroblast Stromelysin Assay (fluorogenic peptide substrate); assay type: biochemical
# Experimental: Human fibroblast stromelysin (HFS) activity is determined by using fluorogenic peptide substrate Dnp-Pro-b-Cyclohexyl-Ala-Gly-Cys(Me)-His-Ala-Lys-(N-methylanthranilic acid)-NH2. The N-terminus Dnp group and the C-terminus N-methyl-anthranilyl moiety (Nma) are fluorescence self-quenching until the peptide is cleaved at the Gly-Cys(me) bond. The fluorescence from the cleavage products is measured on a Bio-Tek Instrument FL500 fluorescence micro-plate reader (excitation at 360 nm, emission at 460 nm). […] The test compounds (at 100, 33 & 10 mM) are compared for their inhibition of HFS activity on the substrate against the activity of Actinonin and Ki's were determined on selected compounds.
# [2] = molecular target: Human neutrophil collagenase (HNC) (Homo sapiens, UniProt P22894); experiment: Human Neutrophil Collagenase Assay (fluorogenic peptide substrate); assay type: biochemical
# Experimental: Human neutrophil collagenase (HNC) activity is determined by using fluorogenic peptide substrate Dnp-Pro-b-Cyclohexyl-Ala-Gly-Cys (Me)-His-Ala-Lys-(N-methylanthranilic acid)-NH2. The N-terminus Dnp group and the C-terminus N-methyl-anthranilyl moiety (Nma) are fluorescence self-quenching until the peptide is cleaved at the Gly-Cys(me) bond. The fluorescence from the cleavage products is measured on a Bio-Tek Instrument FL500 fluorescence micro-plate reader (excitation at 360 nm, emission at 460 nm). […] The test compounds (at 100, 33 & 10 mM) are compared for their inhibition of HNC activity on the substrate against the activity of Actinonin and Ki's were determined on selected compounds.
# TNF-α [3] = settings: Phase II human trial, rheumatoid arthritis; cited from earlier work
# TNF-α [4] = settings: soluble receptors for TNF-α; cited from earlier work
# Chain of Human fibroblast stromelysin (HFS) (P08254 100-477): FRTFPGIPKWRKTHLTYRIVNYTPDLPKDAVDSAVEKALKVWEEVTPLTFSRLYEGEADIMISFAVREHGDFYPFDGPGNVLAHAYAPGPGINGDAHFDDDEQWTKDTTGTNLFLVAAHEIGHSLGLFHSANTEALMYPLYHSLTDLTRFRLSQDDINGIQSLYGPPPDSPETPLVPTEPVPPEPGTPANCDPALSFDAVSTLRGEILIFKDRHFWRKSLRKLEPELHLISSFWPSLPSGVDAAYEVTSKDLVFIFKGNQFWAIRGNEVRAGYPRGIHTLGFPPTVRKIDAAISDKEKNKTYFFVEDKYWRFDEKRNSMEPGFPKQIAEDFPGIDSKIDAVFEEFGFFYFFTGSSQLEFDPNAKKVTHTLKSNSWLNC
# Chain of Human neutrophil collagenase (HNC) (P22894 101-467): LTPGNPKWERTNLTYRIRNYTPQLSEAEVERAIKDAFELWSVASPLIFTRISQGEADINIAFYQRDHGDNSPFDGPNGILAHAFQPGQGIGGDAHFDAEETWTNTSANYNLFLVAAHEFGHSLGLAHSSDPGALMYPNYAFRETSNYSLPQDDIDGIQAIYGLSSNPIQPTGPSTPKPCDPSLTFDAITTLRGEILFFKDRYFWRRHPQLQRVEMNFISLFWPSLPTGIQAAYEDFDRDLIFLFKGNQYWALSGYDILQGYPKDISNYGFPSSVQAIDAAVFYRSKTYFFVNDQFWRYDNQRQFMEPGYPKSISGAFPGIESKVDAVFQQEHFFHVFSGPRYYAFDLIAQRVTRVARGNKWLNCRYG
molecule,measurement,setting,value
Dnp-Pro-b-Cyclohexyl-Ala-Gly-Cys (Me)-His-Ala-Lys-(N-methylanthranilic acid)-NH2,Km,[1],0.051 µM
same,Km,[2],0.051 µM
"cA2: a monoclonal antibody specific to TNF-α, cA2",swollen joint count,TNF-α [3],improvement in swollen joint count
B1,efficacy in animal models of TNF-α mediated disease states,TNF-α [4],demonstrated efficacy in animal models of TNF-α mediated disease states

# Source: US6107291A, “Azepine or larger medium ring derivatives and methods of use” (Amgen Inc., priority 1998, dated 2000)
